{"source": "patent US9161986B2", "about": "“Nanoparticle containing prostaglandin I2 derivative” (LTT BIO-PHARMA CO., LTD., priority 2011, dated 2015)", "key": {"[1]": {"test_system": "pulmonary vascular resistance", "conditions": "treatment for three months, clinical trials; cited from earlier work"}, "[2]": {"conditions": "oral; cited from earlier work"}, "[3]": {"assay": "Formation of insoluble complex in presence or absence of ferric chloride", "type": "physicochemical", "conditions": "various amounts of diethanolamine", "description": "To confirm this, the pH change of the solution and the percentage of beraprost sodium remaining in its supernatant when various amounts of diethanolamine (DEA) was added to the solution in the presence or absence of ferric chloride were examined.\nSpecifically, the pH of the solution was adjusted by adding diethanolamine to the aqueous solution of an iron ion of a specific concentration (455 mM) and beraprost sodium (32.5 mM) so that various pHs of the solution were obtained. The solution (suspension) was centrifuged at 16,500 g for 10 minutes, and the amount of beraprost sodium dissolved in the supernatant was determined by HPLC. The pH of the solution was also measured.\nOn the other hand, the pH of the solution was adjusted by adding diethanolamine to the aqueous solution of beraprost sodium (32.5 mM) in which hydrochloric acid was used instead of an iron ion of a specific concentration so that various pHs of the solution were obtained. The solution (suspension) was centrifuged at 16,500 g for 10 minutes, and the amount of beraprost sodium dissolved in the supernatant was determined by HPLC. The pH of the solution was also measured."}, "[4]": {"conditions": "in vivo; cited from earlier work"}, "[5]": {"assay": "Evaluation of drug retention in blood after intravenous administration", "type": "in vivo, male Wister rats", "conditions": "intravenous via tail vein, rats, n=3; FIG. 5", "description": "Either beraprost sodium nanoparticles or beraprost sodium (comparative example) was administered to male Wister rats (5 week old, n=3) intravenously via a tail vein. After administration, a tail vein different from the administration site was cut with a scalpel at specified times, and blood samples were collected by using blood collection tubes (heparin-treated). A sample solution was prepared by adding 50 μL, of the blood to a microfuge tube containing 1,4-dioxane (150 μL). The sample solution was centrifuged (13,200 rpm, 4° C., and 10 minutes), and then, beraprost sodium contained in the supernatant was determined by HPLC."}, "cAMP": {"test_system": "cAMP", "assay": "Continuous increase of plasma cAMP after intravenous administration (cAMP ELISA)", "type": "in vivo, male Wister rats", "conditions": "intravenous via tail vein, rats, n=2; FIG. 6", "description": "Prostacyclin leads to relaxation of vascular smooth muscle and exerts a dilation effect on a pulmonary vessel by activating adenyl cyclase via a prostacyclin receptor on the vascular smooth muscle and increasing the concentration of cAMP. Therefore, the present inventors investigated whether cAMP increased continuously when the beraprost sodium-containing nanoparticle of the present invention was administered. Either beraprost sodium-containing nanoparticles or beraprost sodium (comparative example) was administered to male Wister rats (5 week old, n=2) intravenously via a tail vein. After administration, a tail vein different from the administration site was cut with a scalpel at specified times, and blood samples were collected by using blood collection tubes. […] This blood plasma sample was diluted as appropriate and cAMP contained in the […] was determined by using a cAMP ELISA kit. The method of measurement followed the protocol made by Assay Designs Inc."}, "[6]": {"conditions": "measure of chemical stability; cited from earlier work"}, "[7]": {"test_system": "primary pulmonary hypertension", "conditions": "primary pulmonary hypertension group treated with epoprostenol; previous studies; cited from earlier work"}}}
{"smiles": "CC#CCC(C)[C@H](O)/C=C/[C@@H]1[C@H]2c3cccc(CCCC(=O)[O-])c3O[C@H]2C[C@H]1O.[Na+]", "note": "(stereo partly drawn) [beraprost sodium]", "values": [{"measurement": "pulmonary vascular resistance", "setting": "[1]", "value": "significantly decreased the pulmonary vascular resistance"}, {"measurement": "half-life of the blood concentration", "setting": "[2]", "value": 1.1, "unit": "h"}, {"measurement": "formation of insoluble complex", "setting": "[3]; in the absence of ferric chloride (hydrochloric acid instead), FIG. 3", "value": "no insoluble complex was formed"}, {"measurement": "formation of insoluble complex", "setting": "[3]; in the presence of ferric chloride, FIG. 2", "value": "formation of an insoluble complex"}, {"measurement": "biological half-life", "setting": "[4]", "value": "about 1.1 hours"}, {"measurement": "drug retention in the blood", "setting": "[5]", "value": "little beraprost sodium existed in the blood as early as 3 hours after its administration"}, {"measurement": "continuous increase of cAMP in the plasma", "setting": "cAMP", "value": "no continuous increase of cAMP was observed"}]}
{"smiles": "CCCCC[C@H](O)/C=C/[C@@H]1[C@H]2C/C(=C/CCCC(=O)O)O[C@H]2C[C@H]1O", "note": "[epoprostenol]", "values": [{"measurement": "chemical half-life", "setting": "[6]", "value": "about 10 minutes"}, {"measurement": "three-year survival rate", "setting": "[7]", "value": "about 70%"}]}
